The target in the test is human-cGAS (h-cGAS) (Homo sapiens, UniProt Q8N884). The test can be described thus: hcGAS Kinase-Glo Assay. It counts as biochemical. The following applies: 40 nM h-cGAS, 100 μM ATP, 100 μM GTP, 25 nM dsDNA, 3 h incubation, read-out: hcGAS potency IC50. The method in brief: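 IC50 values come from a luminescence-based Kinase-Glo measurement on human cGAS. Conditions follow the Lama et al. 2019 method with minor modifications.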

A value given as a limit tells only on which side of the number the result lay.

Usually IC50 stands for the point on the concentration scale where inhibition reaches its midpoint.

human-cGAS (h-cGAS), sequence (Q8N884 whole entry): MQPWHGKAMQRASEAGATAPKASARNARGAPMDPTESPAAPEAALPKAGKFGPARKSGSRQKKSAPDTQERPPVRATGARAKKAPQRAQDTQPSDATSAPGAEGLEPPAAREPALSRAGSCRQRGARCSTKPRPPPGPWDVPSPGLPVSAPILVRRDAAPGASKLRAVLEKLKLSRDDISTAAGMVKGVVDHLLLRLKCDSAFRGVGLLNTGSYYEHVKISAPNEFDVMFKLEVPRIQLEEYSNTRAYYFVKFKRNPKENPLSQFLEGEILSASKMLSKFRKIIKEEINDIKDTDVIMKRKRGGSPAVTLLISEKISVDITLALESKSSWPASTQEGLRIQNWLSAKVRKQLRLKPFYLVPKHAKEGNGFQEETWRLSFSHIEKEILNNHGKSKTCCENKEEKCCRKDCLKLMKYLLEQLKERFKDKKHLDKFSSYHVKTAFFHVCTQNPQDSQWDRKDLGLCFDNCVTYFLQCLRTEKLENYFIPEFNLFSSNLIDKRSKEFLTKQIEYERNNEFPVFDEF

As to `O=C(Nc1nnc(-c2ccccc2Cl)s1)c1nnc(N2CCC[C@@H]2c2ccccc2)o1` [Compound 118, (R)-N-(5-(2-chlorophenyl)-1,3,4-thiadiazol-2-yl)-5-(2-phenylpyrrolidin-1-yl)-1,3,4-oxadiazole-2-carboxamide], the IC50 fell in the range of 100 to 500 nM.
As for `CN(C)C(=O)c1cc(C(=O)Nc2nnc(-c3ccccc3Cl)s2)on1` [Compound 87, N5-(5-(2-chlorophenyl)-1,3,4-thiadiazol-2-yl)-N3,N3-dimethylisoxazole-3,5-dicarboxamide], the concentration for half-maximal inhibition (IC50) fell in the range of 500 to 1000 nM.
For `O=C(Nc1nnc(-c2cscn2)s1)c1onc2ccccc12` [Compound 127, N-(5-(thiazol-4-yl)-1,3,4-thiadiazol-2-yl)benzo[c]isoxazole-3-carboxamide], the IC50 fell in the range of 500 to 1000 nM.
For the molecule `CSc1nnc(NC(=O)c2onc3c2CCCC3O)s1` (centres unmarked) [Compound 196, 7-Hydroxy-N-(5-(methylthio)-1,3,4-thiadiazol-2-yl)-4,5,6,7-tetrahydrobenzo[c]isoxazole-3-carboxamide], the IC50 is no less than 1000 nM.
`CSc1nnc(NC(=O)c2cc(-c3ccccc3)cc(=O)o2)s1` [Compound 213, N-[5-(methylsulfanyl)-1,3,4-thiadiazol-2-yl]-6-oxo-4-phenylpyran-2-carboxamide]: the IC50 lay within 100 to 500 nM.
For `CSc1nnc(NC(=O)c2noc(N3CCCC(C)(C)C3)n2)s1` [Compound 100, 5-(3,3-dimethylpiperidin-1-yl)-N-(5-(methylthio)-1,3,4-thiadiazol-2-yl)-1,2,4-oxadiazole-3-carboxamide], the IC50 is no less than 1000 nM.
Regarding `CSc1nnc(NC(=O)c2onc3ccc(S(=O)(=O)c4ccccc4)cc23)s1` [Compound 164, N-(5-(methylthio)-1,3,4-thiadiazol-2-yl)-5-(phenylsulfonyl)benzo[c]isoxazole-3 carboxamide], the IC50 was in the range of 500 to 1000 nM.
Then `COc1ccccc1-c1cc(C(=O)Nc2nnc(SC)s2)oc(=O)c1` [Compound 244, 4-(2-methoxyphenyl)-N-(5-methylsulfanyl-1,3,4-thiadiazol-2-yl)-6-oxo-pyran-2-carboxamide], with 100 to 500 nM; and `CSc1nnc(NC(=O)c2nnn(-c3cccnc3)n2)s1` [Compound 137, N-(5-(methylthio)-1,3,4-thiadiazol-2-yl)-2-(pyridin-3-yl)-2H-tetrazole-5-carboxamide], with no less than 1000 nM; and `CNC(=O)c1cc(C(=O)Nc2nnc(-c3ccccc3Cl)s2)on1` [Compound 89, N5-(5-(2-chlorophenyl)-1,3,4-thiadiazol-2-yl)-N3-methylisoxazole-3,5-dicarboxamide], with 500 to 1000 nM.
Regarding `Cc1ccc(-c2nnc(NC(=O)c3onc4ccccc34)s2)cc1` [Compound 29, N-(5-(p-tolyl)-1,3,4-thiadiazol-2-yl)benzo[c]isoxazole-3-carboxamide], the IC50 is no less than 1000 nM.
Take `CSc1nnc(NC(=O)c2cc(C3CCCC3)no2)s1` [Compound 85, 3-cyclopentyl-N-(5-(methylthio)-1,3,4-thiadiazol-2-yl)isoxazole-5-carboxamide]: the IC50 is 500 to 1000 nM.
Consider `CSc1nnc(NC(=O)c2cc(-c3ccccc3-c3ccc(CC(=O)O)cc3)cc(=O)o2)s1` [Compound 176], for which the IC50 lay in the range of 500 to 1000 nM.
In the case of `CSc1nnc(NC(=O)c2noc(-c3cccnc3)n2)s1` [Compound 105, N-[5-(methylsulfanyl)-1,3,4-thiadiazol-2-yl]-5-(pyridin-3-yl)-1,2,4-oxadiazole-3-carboxamide], the IC50 was no less than 1000 nM.
As to `CC(C)(C)OC(=O)Nc1cc(C(=O)Nc2nnc(-c3ccccc3Cl)s2)on1` [Compound 3, tert-butyl (5-((5-(2-chlorophenyl)-1,3,4-thiadiazol-2-yl)carbamoyl)isoxazol-3-yl)carbamate], the concentration for half-maximal inhibition (IC50) is 100 to 500 nM.
With `COC(=O)c1ccc2c(C(=O)Nc3nnc(SC)s3)onc2c1` [Compound 278, methyl 3-((5-(methylthio)-1,3,4-thiadiazol-2-yl)carbamoyl)benzo[c]isoxazole-6-carboxylate], the IC50 lay within 500 to 1000 nM.
Then `CSc1nnc(NC(=O)c2cc(-c3ccccc3C)cc(=O)o2)s1` [Compound 248], with 100 to 500 nM; and `CSc1nnc(NC(=O)c2cc(-c3nccs3)no2)s1` [Compound 142, N-(5-(methylthio)-1,3,4-thiadiazol-2-yl)-3-(thiazol-2-yl)isoxazole-5-carboxamide], with 500 to 1000 nM.
Then `CSc1nnc(NC(=O)c2onc3c2ccc2ccncc23)s1` [Compound 279, N-(5-(methylthio)-1,3,4-thiadiazol-2-yl)isoxazolo[4,3-h]isoquinoline-3-carboxamide], with 500 to 1000 nM.
Take `O=C(Nc1nnc(-c2ccccc2C(F)F)s1)c1onc2ccccc12` [Compound 147, N-(5-(2-(difluoromethyl)phenyl)-1,3,4-thiadiazol-2-yl)benzo[c]isoxazole-3-carboxamide]: the IC50 lay in the range of 500 to 1000 nM.
In the case of `O=C(Nc1nnc(-c2nccs2)s1)c1onc2ccccc12` [Compound 131, N-(5-(thiazol-2-yl)-1,3,4-thiadiazol-2-yl)benzo[c]isoxazole-3-carboxamide], the IC50 is 100 to 500 nM.
As to `CSc1nnc(NC(=O)c2cc(C3CCOCC3)no2)s1` [Compound 80, N-(5-(methylthio)-1,3,4-thiadiazol-2-yl)-3-(tetrahydro-2H-pyran-4-yl)isoxazole-5-carboxamide], the IC50 is 500 to 1000 nM.
For the molecule `CSc1nnc(NC(=O)c2oncc2-c2ccccc2)s1` [Compound 232, N-[5-(methylsulfanyl)-1,3,4-thiadiazol-2-yl]-4-phenyl-1,2-oxazole-5-carboxamide], the IC50 fell in the range of 500 to 1000 nM.
As to `O=C(Nc1nnc(-c2ccccc2Cl)s1)c1n[nH]c(=O)[nH]1` [Compound 63, N-(5-(2-chlorophenyl)-1,3,4-thiadiazol-2-yl)-5-oxo-4,5-dihydro-1H-1,2,4-triazole-3-carboxamide], the IC50 was 500 to 1000 nM.
Consider `CSc1nnc(NC(=O)c2nnc(N3CCCCC3)o2)s1` [Compound 108, N-(5-(methylthio)-1,3,4-thiadiazol-2-yl)-5-(piperidin-1-yl)-1,3,4-oxadiazole-2-carboxamide], for which the IC50 fell in the range of 500 to 1000 nM.
`CSc1nnc(NC(=O)c2nnc(Nc3ccccc3)o2)s1` [Compound 257, 5-anilino-N-(5-methylsulfanyl-1,3,4-thiadiazol-2-yl)-1,3,4-oxadiazole-2-carboxamide]: the IC50 fell in the range of 500 to 1000 nM.
As to `O=C(Nc1nnc(-c2cccc(Cl)c2Cl)s1)c1cc(O)no1` [Compound 57, N-(5-(2,3-dichlorophenyl)-1,3,4-thiadiazol-2-yl)-3-hydroxyisoxazole-5-carboxamide], the IC50 is less than 100 nM.
Take `CSc1nnc(NC(=O)c2nnc(N(C)C(C)c3ccccc3)o2)s1` (centres unmarked) [Compound 114, 5-[methyl(1-phenylethyl)amino]-N-[5-(methylsulfanyl)-1,3,4-thiadiazol-2-yl]-1,3,4-oxadiazole-2-carboxamide]: the IC50 fell in the range of 500 to 1000 nM.
With `COc1ccccc1-c1nnc(NC(=O)c2onc3ccccc23)s1` [Compound 24, N-(5-(2-methoxyphenyl)-1,3,4-thiadiazol-2-yl)benzo[c]isoxazole-3-carboxamide], the IC50 was in the range of 500 to 1000 nM.
Consider `CSc1nnc(NC(=O)c2cc(-c3cccs3)no2)s1` [Compound 75, N-(5-(methylthio)-1,3,4-thiadiazol-2-yl)-3-(thiophen-2-yl)isoxazole-5-carboxamide], for which the IC50 was 500 to 1000 nM.
As for `O=C(Nc1nnc(-c2c(F)cccc2F)s1)c1onc2c1ccc1cccnc12` [Compound 8, N-(5-(2,6-difluorophenyl)-1,3,4-thiadiazol-2-yl)isoxazolo[4,3-h]quinoline-3-carboxamide], the IC50 was 100 to 500 nM.
As for `CSc1nnc(NC(=O)c2nc(-c3cnccn3)no2)s1` [Compound 71, N-(5-(methylthio)-1,3,4-thiadiazol-2-yl)-3-(pyrazin-2-yl)-1,2,4-oxadiazole-5-carboxamide], the IC50 lay in the range of 500 to 1000 nM.
Then `CSc1nnc(NC(=O)c2cc(-c3cccc(Cl)c3)cc(=O)o2)s1` [Compound 240, 4-(3-chlorophenyl)-N-(5-methylsulfanyl-1,3,4-thiadiazol-2-yl)-6-oxo-pyran-2-carboxamide], with 100 to 500 nM; and `O=C(Nc1nnc(-c2ccccc2Cl)s1)c1cc(-c2ncc(F)cn2)no1` [Compound 156, N-(5-(2-Chlorophenyl)-1,3,4-thiadiazol-2-yl)-3-(5-fluoropyrimidin-2-yl)isoxazole-5-carboxamide], with 100 to 500 nM; and `CSc1nnc(NC(=O)c2cnc(-c3cccs3)s2)s1` [Compound 76, N-(5-(methylthio)-1,3,4-thiadiazol-2-yl)-2-(thiophen-2-yl)thiazole-5-carboxamide], with no less than 1000 nM.
Regarding `CSc1nnc(NC(=O)c2cc(C3CC3)no2)s1` [Compound 17, 3-cyclopropyl-N-(5-(methylthio)-1,3,4-thiadiazol-2-yl)isoxazole-5-carboxamide], the IC50 is 500 to 1000 nM.
Consider `CSc1nnc(NC(=O)c2cc(-c3ccccc3Cl)cc(=O)o2)s1` [Compound 251, 4-(2-chlorophenyl)-N-(5-methylsulfanyl-1,3,4-thiadiazol-2-yl)-6-oxo-pyran-2-carboxamide], for which the IC50 fell in the range of 100 to 500 nM.
For `CSc1nnc(NC(=O)c2cc(-c3cccc4ccncc34)cc(=O)o2)s1` [Compound 277, 4-(isoquinolin-8-yl)-N-(5-(methylthio)-1,3,4-thiadiazol-2-yl)-2-oxo-2H-pyran-6-carboxamide], the IC50 lay within 500 to 1000 nM.
On to `Cc1cccc(-c2nnc(NC(=O)c3onc4ccccc34)s2)c1` [Compound 28, N-(5-(m-tolyl)-1,3,4-thiadiazol-2-yl)benzo[c]isoxazole-3-carboxamide], for which the IC50 was no less than 1000 nM.
On to `CSc1nnc(NC(=O)c2onc3c(C)cccc23)s1` [Compound 226, 7-methyl-N-[5-(methylsulfanyl)-1,3,4-thiadiazol-2-yl]-2,1-benzoxazole-3-carboxamide], for which the IC50 was no less than 1000 nM.
`CSc1nnc(NC(=O)c2onc3ccc(Cc4ccc(O)cc4)cc23)s1` [Compound 188, 5-(4-hydroxybenzyl)-N-(5-(methylthio)-1,3,4-thiadiazol-2-yl)benzo[c]isoxazole-3-carboxamide]: the IC50 lay within 500 to 1000 nM.
